# Measurements taken from PubChem BioAssay AID328 (DTP/NCI, 2004).
# Where “and” joins values, the source holds several entries; their conditions need not be identical. Equal values may be shown once. Toxic doses and inconclusive results are not listed.
# Test system: BDF1 mice, P388 leukemia ip, median survival T/C
# Experiment: NCI In Vivo Anticancer Drug Screen. Data for tumor model P388 Leukemia (intraperitoneal) in B6D2F1 (BDF1) mice
# Details: endpoint: median survival time, higher = longer survival
# Procedure, shortened: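 Vehicle-dosed animals serve as the reference; survival of compound-dosed, tumour-implanted mice is divided by it.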
# [1] = dose: 25.0 mg/kg/injection, schedule: Q01DX009 (ip), vehicle: saline
# [2] = dose: 50.0 mg/kg/injection, schedule: Q01DX009 (ip), vehicle: saline
# [3] = dose: 50.0 mg/kg/injection, schedule: Q04DX003 (ip), vehicle: saline
# [4] = dose: 100.0 mg/kg/injection, schedule: Q01DX009 (ip), vehicle: saline
# [5] = dose: 100.0 mg/kg/injection, schedule: Q04DX003 (ip), vehicle: saline
# [6] = dose: 100.0 mg/kg/injection, schedule: Q01DX009 (ip), vehicle: saline with Tween-80
# [7] = dose: 200.0 mg/kg/injection, schedule: Q01DX009 (ip), vehicle: saline with Tween-80
# [8] = dose: 50.0 mg/kg/injection, schedule: Q01DX009 (ip), vehicle: saline with Tween-80
# [9] = dose: 200.0 mg/kg/injection, schedule: Q01DX009 (ip), vehicle: Klucel (hydroxypropylcellulose) (HPC)
# [10] = dose: 400.0 mg/kg/injection, schedule: Q01DX009 (ip), vehicle: Klucel (hydroxypropylcellulose) (HPC)
# [11] = dose: 400.0 mg/kg/injection, schedule: Q04DX003 (ip), vehicle: saline
smiles,measurement,setting,value
CCOC(=O)C(C(=O)OCC)C1c2ccccc2C(=O)N(CCN(C)C)c2ccccc21 (stereo not drawn),T/C,[1],109 % of control
same,T/C,[2],95 % of control
same,T/C,[3],91 % of control
same,T/C,[4],104 % of control
same,T/C,[5],87 % of control
OCC(F)(F)C(F)(F)C(F)(F)F,T/C,[6],100 % of control
same,T/C,[7],104 % of control
same,T/C,"dose: 400.0 mg/kg/injection, schedule: Q01DX009 (ip), vehicle: saline with Tween-80",109 % of control
CN(C)c1ccc(/C=C/c2ccnc3ccccc23)c(Cl)c1,T/C,[8],102 % of control
same,T/C,[6],96 % of control
same,T/C,[7],88 % of control
N#Cc1cn[nH]c1N,T/C,[2],100 % of control
same,T/C,[4],109 % of control
same,T/C,"dose: 200.0 mg/kg/injection, schedule: Q01DX009 (ip), vehicle: saline",98 % of control
COc1cc(/C=N/NC(=O)c2ccncc2)cc(OC)c1OC,T/C,"dose: 100.0 mg/kg/injection, schedule: Q04DX003 (ip), vehicle: Klucel (hydroxypropylcellulose) (HPC)",104 % of control
same,T/C,[9],122 % of control
same,T/C,"dose: 200.0 mg/kg/injection, schedule: Q04DX003 (ip), vehicle: Klucel (hydroxypropylcellulose) (HPC)",109 % of control
same,T/C,[10],122 % of control
same,T/C,"dose: 400.0 mg/kg/injection, schedule: Q04DX003 (ip), vehicle: Klucel (hydroxypropylcellulose) (HPC)",100 % of control
NC(=O)NC(c1ccccc1)C(NC(N)=O)c1ccccc1 (stereo not drawn),T/C,[8],110 % of control
same,T/C,[6],104 % of control
same,T/C,[7],91 % of control
CCN(CC)CCOCCO,T/C,[5],110 % of control
same,T/C,[11],100 % of control
O=C(CC(=O)NN=C1CCCCCC1)NN=C1CCCCCC1,T/C,"dose: 37.5 mg/kg/injection, schedule: Q01DX009 (ip), vehicle: saline with Tween-80",98 % of control
same,T/C,"dose: 75.0 mg/kg/injection, schedule: Q01DX009 (ip), vehicle: saline with Tween-80",105 % of control
same,T/C,"dose: 150.0 mg/kg/injection, schedule: Q01DX009 (ip), vehicle: saline with Tween-80",99 % of control
CC(=O)c1ccc(C(=O)CC(O)(C(F)(F)F)C(F)(F)F)cc1,T/C,"dose: 50.0 mg/kg/injection, schedule: Q01DX009 (ip), vehicle: other",104 % of control
same,T/C,"dose: 50.0 mg/kg/injection, schedule: Q04DX003 (ip), vehicle: other",90 % of control
same,T/C,"dose: 100.0 mg/kg/injection, schedule: Q01DX009 (ip), vehicle: other",104 % of control
same,T/C,"dose: 100.0 mg/kg/injection, schedule: Q04DX003 (ip), vehicle: other",95 % of control
CC(=O)Nc1ccn(C2OC(COC(C)=O)C(OC(C)=O)C2OC(C)=O)c(=O)n1 (stereo not drawn),T/C,"dose: 100.0 mg/kg/injection, schedule: Q04DX003 (ip), vehicle: saline with Tween-80",109 % of control
same,T/C,"dose: 177.0 mg/kg/injection, schedule: Q04DX003 (ip), vehicle: saline with Tween-80",104 % of control
same,T/C,"dose: 266.0 mg/kg/injection, schedule: Q04DX003 (ip), vehicle: saline with Tween-80",100 % of control and 116 % of control
same,T/C,"dose: 400.0 mg/kg/injection, schedule: Q04DX003 (ip), vehicle: saline with Tween-80",108 % of control and 118 % of control
CC(CS(=O)(=O)O)N1CCN(CCO)CC1 (stereo not drawn),T/C,[5],95 % of control
same,T/C,"dose: 200.0 mg/kg/injection, schedule: Q04DX003 (ip), vehicle: saline",100 % of control
same,T/C,[11],100 % of control
O=C1CC(c2ccccc2)=NO1,T/C,"dose: 25.0 mg/kg/injection, schedule: Q01DX009 (ip), vehicle: saline with Tween-80",96 % of control
same,T/C,[8],91 % of control
same,T/C,[6],101 % of control
same,T/C,[7],107 % of control
[I][Hg][CH2]C1COC([CH2][Hg][I])CO1 (stereo not drawn),T/C,"dose: 0.78 mg/kg/injection, schedule: Q01DX010 (ip), vehicle: saline",95 % of control
same,T/C,"dose: 1.56 mg/kg/injection, schedule: Q01DX010 (ip), vehicle: saline",95 % of control and 118 % of control
same,T/C,"dose: 3.13 mg/kg/injection, schedule: Q01DX010 (ip), vehicle: saline",100 % of control and 122 % of control
same,T/C,"dose: 6.25 mg/kg/injection, schedule: Q01DX010 (ip), vehicle: saline",122 % of control
same,T/C,"dose: 12.5 mg/kg/injection, schedule: Q01DX010 (ip), vehicle: saline",118 % of control
N#Cc1nc2nc(C(F)(F)F)[nH]c2nc1C#N,T/C,"dose: 6.25 mg/kg/injection, schedule: Q04DX003 (ip), vehicle: saline with Tween-80",100 % of control
same,T/C,"dose: 12.5 mg/kg/injection, schedule: Q01DX009 (ip), vehicle: saline with Tween-80",95 % of control
same,T/C,"dose: 12.5 mg/kg/injection, schedule: Q04DX003 (ip), vehicle: saline with Tween-80",100 % of control
same,T/C,"dose: 25.0 mg/kg/injection, schedule: Q04DX003 (ip), vehicle: saline with Tween-80",87 % of control and 90 % of control
CCOC(=O)NCNC(=O)OCC,T/C,"dose: 100.0 mg/kg/injection, schedule: Q04DX003 (ip), vehicle: saline sonified",100 % of control
same,T/C,"dose: 200.0 mg/kg/injection, schedule: Q04DX003 (ip), vehicle: saline sonified",108 % of control
same,T/C,"dose: 400.0 mg/kg/injection, schedule: Q04DX003 (ip), vehicle: saline sonified",108 % of control
Nc1ccccc1SC1CC(=O)N(c2ccc(Br)c(Cl)c2)C1=O (stereo not drawn),T/C,"dose: 0.1 mg/kg/injection, schedule: Q01DX005 (ip), vehicle: saline with Tween-80",98 % of control
same,T/C,"dose: 0.2 mg/kg/injection, schedule: Q01DX005 (ip), vehicle: saline with Tween-80",93 % of control
same,T/C,"dose: 0.4 mg/kg/injection, schedule: Q01DX005 (ip), vehicle: saline with Tween-80",100 % of control
same,T/C,"dose: 1.5 mg/kg/injection, schedule: Q01DX005 (ip), vehicle: saline with Tween-80",95 % of control
same,T/C,"dose: 3.0 mg/kg/injection, schedule: Q01DX005 (ip), vehicle: saline with Tween-80",90 % of control
CC1SCC(=O)N1c1nccs1 (stereo not drawn),T/C,[8],99 % of control
same,T/C,[6],100 % of control
same,T/C,[7],102 % of control
Clc1ccc(C2(C3CCNCC3)CCCO2)cc1 (stereo not drawn),T/C,[8],106 % of control
same,T/C,[6],90 % of control
Cc1c(CNc2ccc(C(=O)NC(CC(=O)O)CC(=O)O)cc2)ccc2nc(N)nc(N)c12,T/C,"dose: 0.19 mg/kg/injection, schedule: Q01DX009 (ip), vehicle: saline",165 % of control
same,T/C,"dose: 0.37 mg/kg/injection, schedule: Q01DX009 (ip), vehicle: saline",215 % of control
same,T/C,"dose: 0.75 mg/kg/injection, schedule: Q01DX009 (ip), vehicle: saline",100 % of control
same,T/C,"dose: 1.5 mg/kg/injection, schedule: Q01DX009 (ip), vehicle: saline",95 % of control
same,T/C,"dose: 2.0 mg/kg/injection, schedule: Q01DX009 (ip), vehicle: saline",110 % of control
Nc1[nH]c(=S)[nH]c(=O)c1N,T/C,"dose: 75.0 mg/kg/injection, schedule: Q01DX009 (ip), vehicle: Klucel (hydroxypropylcellulose) (HPC)",115 % of control
same,T/C,"dose: 100.0 mg/kg/injection, schedule: Q01DX001 (ip), vehicle: Klucel (hydroxypropylcellulose) (HPC)",95 % of control
same,T/C,"dose: 200.0 mg/kg/injection, schedule: Q01DX001 (ip), vehicle: Klucel (hydroxypropylcellulose) (HPC)",95 % of control
COc1cccc2c1C(=O)c1c(O)c3c(c(O)c1C2=O)C[C@@](O)(C(=O)CO)C[C@@H]3OC1CC(NC(C)=O)C(O)C(C)O1 (stereo partly drawn),T/C,"dose: 25.0 mg/kg/injection, schedule: Q04DX009 (ip), vehicle: other",119 % of control
same,T/C,"dose: 100.0 mg/kg/injection, schedule: Q04DX009 (ip), vehicle: other",119 % of control
same,T/C,"dose: 200.0 mg/kg/injection, schedule: Q04DX009 (ip), vehicle: other",119 % of control
C/C=C/C=C/C(=O)NO,T/C,"dose: 100.0 mg/kg/injection, schedule: Q04DX003 (ip), vehicle: alcohol",113 % of control
same,T/C,[9],91 % of control
same,T/C,"dose: 200.0 mg/kg/injection, schedule: Q04DX003 (ip), vehicle: alcohol",100 % of control
same,T/C,[10],116 % of control
same,T/C,"dose: 400.0 mg/kg/injection, schedule: Q04DX003 (ip), vehicle: alcohol",104 % of control
CC(=O)OC(C)(C)c1ccccc1[S+]1OC(C)(C)c2ccccc21 (stereo not drawn),T/C,"dose: 100.0 mg/kg/injection, schedule: Q01DX001 (ip), vehicle: other",100 % of control
NNC12CC3CC(CC(C3)C1)C2,T/C,"dose: 6.25 mg/kg/injection, schedule: Q01DX009 (ip), vehicle: saline",95 % of control
same,T/C,"dose: 6.25 mg/kg/injection, schedule: Q04DX003 (ip), vehicle: saline",102 % of control
same,T/C,"dose: 12.5 mg/kg/injection, schedule: Q01DX009 (ip), vehicle: saline",86 % of control
same,T/C,"dose: 12.5 mg/kg/injection, schedule: Q04DX003 (ip), vehicle: saline",100 % of control
same,T/C,[1],86 % of control
same,T/C,"dose: 25.0 mg/kg/injection, schedule: Q04DX003 (ip), vehicle: saline",98 % of control
same,T/C,[3],115 % of control
